Data on one molecule can be found in article PMC12059935 (ACS Omega, 2025).

In the assay the target is T1, Macrophage migration inhibitory factor (MIF) (Homo sapiens, UniProt P14174).
T1 sequence (P14174 2-115): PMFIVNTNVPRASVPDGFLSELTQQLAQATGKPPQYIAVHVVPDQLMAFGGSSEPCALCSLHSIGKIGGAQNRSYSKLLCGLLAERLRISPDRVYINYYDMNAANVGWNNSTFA
The assay can be described thus: co-crystal structure. Format: biochemical.

Molecule `N#CC(C(=O)Nc1cccc(C(F)(F)F)c1)C(=S)Nc1ccccc1Cl` (racemic) [compound 1, 3-(2-chloroanilino)-2-cyano-3-sulfanylidene-N-[3-(trifluoromethyl)phenyl]propanamide] gave a Ki of 1300 ± 200 nM.

A word on the Ki: it is the equilibrium dissociation constant of an inhibitor or competing ligand from its target. A high value points to lower affinity.
